Reference: ChEMBL document CHEMBL4396888, “Design and Synthesis of Potent, Selective Inhibitors of Protein Arginine Methyltransferase 4 against Acute Myeloid Leukemia” (J Med Chem, 2019)

The compounds below were run against T1, Histone-arginine methyltransferase CARM1 (Homo sapiens, UniProt Q86X55) (assay: Inhibition of PRMT4 (unknown origin) using histone H3 (21 to 44 residues) as substrate measured after 60 mins in presence of SAM by AlphaLisa assay).
T1 sequence (Q86X55 whole entry): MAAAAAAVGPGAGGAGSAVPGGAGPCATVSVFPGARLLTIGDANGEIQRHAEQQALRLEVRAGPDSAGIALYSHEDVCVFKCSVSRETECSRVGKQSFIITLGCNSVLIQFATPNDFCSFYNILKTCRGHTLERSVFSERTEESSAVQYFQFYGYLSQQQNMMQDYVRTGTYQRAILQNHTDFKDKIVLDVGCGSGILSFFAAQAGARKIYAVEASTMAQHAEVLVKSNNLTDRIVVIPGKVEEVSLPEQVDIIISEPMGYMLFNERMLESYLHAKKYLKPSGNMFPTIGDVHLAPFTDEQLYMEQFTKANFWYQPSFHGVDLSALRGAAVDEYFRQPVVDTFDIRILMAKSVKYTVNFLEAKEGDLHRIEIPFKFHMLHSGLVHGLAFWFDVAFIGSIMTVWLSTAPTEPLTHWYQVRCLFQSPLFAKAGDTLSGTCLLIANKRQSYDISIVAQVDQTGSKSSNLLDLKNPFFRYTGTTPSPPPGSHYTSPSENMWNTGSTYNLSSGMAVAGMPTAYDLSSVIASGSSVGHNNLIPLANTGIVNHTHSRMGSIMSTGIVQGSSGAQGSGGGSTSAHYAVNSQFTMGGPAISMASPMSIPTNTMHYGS

IC50	Structure (SMILES)
130 nM	CNCC(O)CN1CCc2c(Br)cccc2C1 (stereo unspecified)
305 nM	CNCC(O)CN1CCc2c(cccc2OCc2ccc(C#N)cc2)C1 (stereo unspecified)
120 nM	CNCC(O)CN1CCc2c(cccc2OCc2ccc(-c3ccccc3)cc2)C1 (stereo unspecified)
4480 nM	CNCC(O)CN1CCc2cc(Br)ccc2C1 (stereo unspecified)
279 nM	CNCC(O)CN1CCc2c(cccc2Oc2ccc(-c3nccs3)cc2)C1 (stereo unspecified)
785 nM	CNCC(O)CN1CCCc2c(Br)cccc2C1 (stereo unspecified)
37 nM	CNCC(O)CN1CCc2c(cccc2OCc2ccc(Cl)cc2)C1 (stereo unspecified)
7980 nM	CNCC(O)CN1CCc2c(cccc2C(=O)Nc2ccccc2)C1 (stereo unspecified)
465 nM	CNCC(O)CN1CCc2c(cccc2-c2ccccc2)C1 (stereo unspecified)
4260 nM	CNCC(O)CN1CCc2c(cccc2NS(=O)(=O)c2ccccc2)C1 (stereo unspecified)
2130 nM	CNCC(O)CN1CCc2c(cccc2C(=O)NCc2ccccc2)C1 (stereo unspecified)
2070 nM	CNCC(O)CN1CCc2c(cccc2Oc2ccccc2F)C1 (stereo unspecified)
32 nM	CNCCN1CCC(OCc2ccccc2)CC1
43 nM	CNCC(O)CN1CCc2c(cccc2OCc2cccc(-c3nccs3)c2)C1 (racemic)
6120 nM	CNCC(O)CN1CCc2c(cccc2NC(=O)c2ccccc2)C1 (stereo unspecified)
3190 nM	CNCC(O)CN1CCCc2ccccc2C1 (stereo unspecified)
772 nM	CNCC(O)CN1CCc2cccc(Br)c2C1 (stereo unspecified)
1180 nM	CNCC(O)CN1CCc2c(cccc2Oc2ccc(Cl)cc2)C1 (stereo unspecified)
530 nM	CNCC(O)CN1CCc2c(cccc2OCc2cccc(F)c2)C1 (stereo unspecified)
3490 nM	CNCC(O)CN1CCc2c(cccc2Oc2cccc(N)c2)C1 (stereo unspecified)
5310 nM	CNCC(O)CN1CCc2ccccc2C1 (stereo unspecified)

IC50	Structure (SMILES)
254 nM	CNCC(O)CN1CCc2c(cccc2OCc2ccccc2F)C1 (stereo unspecified)
> 10000 nM	CNCC(O)CN1CCOc2ccccc2C1 (stereo unspecified)
343 nM	CNCC(O)CN1CCc2c(cccc2NCc2ccccc2)C1 (stereo unspecified)
1990 nM	CNCC(O)CN1CCc2c(cccc2Oc2cc(C)cc(C)c2)C1 (stereo unspecified)
475 nM	CNCC(O)CN1CCc2cc(OCc3ccccc3)ccc2C1 (stereo unspecified)
2460 nM	CNCC(O)CN1Cc2ccccc2C1 (stereo unspecified)
165 nM	CNCC(O)CN1CCc2c(cccc2OCc2ccccc2)C1 (stereo unspecified)
2610 nM	CNCC(O)CN1CCc2c(cccc2Oc2ccc(F)cc2)C1 (stereo unspecified)
8340 nM	CNCC(O)CN1CCc2ccccc2CC1 (stereo unspecified)
2110 nM	CNCC(O)CN1CCc2c(cccc2Nc2ccccc2)C1 (stereo unspecified)
1950 nM	CNCC(O)CN1CCc2c(cccc2OCc2ccc(C(C)(C)C)cc2)C1 (stereo unspecified)
2050 nM	CNCC(O)CN1CCc2c(cccc2Oc2ccc(F)c(Cl)c2)C1 (stereo unspecified)
2310 nM	CNCC(O)CN1CCc2c(cccc2Oc2cccc(F)c2)C1 (stereo unspecified)
2310 nM	CNCC(O)CN1CCc2c(cccc2Oc2ccc(C#N)cc2)C1 (stereo unspecified)
228 nM	CNCC(O)CN1CCc2c(cccc2OCc2ccc(F)cc2)C1 (stereo unspecified)
900 nM	CNCC(O)CN1CCc2cc(Oc3ccccc3)ccc2C1 (stereo unspecified)
3820 nM	CNCC(O)CN1CCc2c(cccc2NC(=O)Nc2ccccc2)C1 (stereo unspecified)
5220 nM	CNCC(O)CN1CCc2ccc(Br)cc2C1 (stereo unspecified)
270 nM	CNCC(O)CN1CCc2c(cccc2Oc2ccccc2)C1 (stereo unspecified)
658 nM	CNCC(O)CN1CCc2c(cccc2Oc2cccc(-c3nccs3)c2)C1 (stereo unspecified)

Structure (SMILES)	IC50
CNCC(O)CN1CCc2c(cccc2OCc2ccc(-c3nccs3)cc2)C1 (racemic)	31 nM
CNC[C@H](O)CN1CCc2c(cccc2OCc2ccc(-c3nccs3)cc2)C1	101 nM

These compounds were tested against Protein arginine N-methyltransferase 6 (Homo sapiens, UniProt Q96LA8) (assay: Inhibition of PRMT6 (unknown origin) preincubated for 15 mins followed by substrate addition and measured after 60 mins by AlphaLisa assay).
Chain of Protein arginine N-methyltransferase 6 (Q96LA8 whole entry): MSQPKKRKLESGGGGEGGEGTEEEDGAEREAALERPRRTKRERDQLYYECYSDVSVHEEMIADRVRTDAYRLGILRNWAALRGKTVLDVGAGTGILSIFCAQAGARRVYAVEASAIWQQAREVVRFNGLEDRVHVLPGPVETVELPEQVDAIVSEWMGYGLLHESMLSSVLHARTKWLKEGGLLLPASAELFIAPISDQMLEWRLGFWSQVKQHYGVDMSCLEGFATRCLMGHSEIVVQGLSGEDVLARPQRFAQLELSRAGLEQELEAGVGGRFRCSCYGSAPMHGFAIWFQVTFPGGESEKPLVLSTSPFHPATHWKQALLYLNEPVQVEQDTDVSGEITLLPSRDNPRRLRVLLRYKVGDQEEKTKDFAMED

IC50	Structure (SMILES)
41200 nM	CNCC(O)CN1CCc2c(Br)cccc2C1 (stereo unspecified)

What follows are compounds tested against Protein arginine N-methyltransferase 8 (Homo sapiens, UniProt Q9NR22) (assay: Inhibition of PRMT8 (unknown origin) using biotinylated histone H4 (1 to 24 residues) as substrate in presence of [3H]SAM by scintillation proximity assay).
Chain of Protein arginine N-methyltransferase 8 (Q9NR22 whole entry, the tested form may be a part): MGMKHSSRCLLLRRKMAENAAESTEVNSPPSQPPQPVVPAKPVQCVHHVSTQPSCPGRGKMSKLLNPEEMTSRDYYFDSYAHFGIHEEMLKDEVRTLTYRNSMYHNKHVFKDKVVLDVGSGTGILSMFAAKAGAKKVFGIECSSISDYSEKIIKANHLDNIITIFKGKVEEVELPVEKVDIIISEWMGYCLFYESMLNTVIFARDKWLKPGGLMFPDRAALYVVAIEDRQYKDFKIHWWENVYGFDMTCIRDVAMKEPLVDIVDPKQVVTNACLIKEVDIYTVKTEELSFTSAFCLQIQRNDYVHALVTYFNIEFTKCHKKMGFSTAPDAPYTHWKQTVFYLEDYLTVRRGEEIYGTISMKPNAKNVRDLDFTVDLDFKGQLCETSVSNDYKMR

IC50	Structure (SMILES)
4 to 119 nM	CC(C)Oc1ccc(-c2c[nH]cc2CN(C)CCN)cc1

What follows are compounds tested against T1, Histone-arginine methyltransferase CARM1 (assay: Inhibition of PRMT4 (unknown origin) using biotinylated […] (1 to 24 residues) as substrate in presence of [3H]SAM by scintillation proximity assay).

IC50	Structure (SMILES)
4 to 119 nM	CC(C)Oc1ccc(-c2c[nH]cc2CN(C)CCN)cc1
